Like-named read-outs stand apart in the source and are kept apart here.
Experiments:
hCES2A = target: T1, hCES2A (Homo sapiens, UniProt O00748); assay: hCES2A inhibition assay (FD hydrolysis in HLM); type: biochemical; details: for inhibition of hCES2A-mediated FD hydrolysis (residual activity screen): HLM, ginsenoside 100 μM, result in words; for Specificity (hCES1A/hCES2A): ratio of IC50 values in HLM;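 on all read-outs here: HLM at 1 µg/mL in 0.1 M PBS pH 7.4, kinetic read at 37 °C every 30 s over 30 min, triplicate runs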
T1 construct: tissue Bioreclamation IVT lot no; X008067; host or cells: pooled human liver microsomes (50 donors)
T1 sequence (O00748 27-559): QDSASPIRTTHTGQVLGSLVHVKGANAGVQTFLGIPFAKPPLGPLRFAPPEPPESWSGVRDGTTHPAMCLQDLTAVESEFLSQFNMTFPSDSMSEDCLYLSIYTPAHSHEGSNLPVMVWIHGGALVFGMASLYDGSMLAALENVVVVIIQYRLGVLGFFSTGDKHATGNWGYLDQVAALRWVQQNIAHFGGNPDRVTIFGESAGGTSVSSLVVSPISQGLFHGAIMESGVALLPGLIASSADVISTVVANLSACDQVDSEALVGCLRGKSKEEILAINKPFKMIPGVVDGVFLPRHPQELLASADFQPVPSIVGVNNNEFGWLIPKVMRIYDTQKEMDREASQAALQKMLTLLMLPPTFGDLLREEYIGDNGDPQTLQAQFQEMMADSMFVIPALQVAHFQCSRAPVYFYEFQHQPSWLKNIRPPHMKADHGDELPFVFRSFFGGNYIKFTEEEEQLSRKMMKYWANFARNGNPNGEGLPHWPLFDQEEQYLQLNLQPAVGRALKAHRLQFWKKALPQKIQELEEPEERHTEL

hCES1A = target: T2, hCES1A (Homo sapiens, UniProt P23141); assay: hCES1A inhibition assay (DME hydrolysis in HLM); type: biochemical; details: for inhibition of hCES1A-mediated DME hydrolysis (residual activity screen): HLM, ginsenoside 100 μM, result in words;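 on all read-outs here: Read-out is D-luciferin luminescence formed from DME (3 µM) after 10 min at 37 °C in pH 6.5 PBS, HLM 1 µg/mL, inhibitor preincubated 3 min, oleanic acid as positive control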
T2 construct: tissue Bioreclamation IVT lot no; X008067; host or cells: pooled human liver microsomes (50 donors)
T2 sequence (P23141 18-567): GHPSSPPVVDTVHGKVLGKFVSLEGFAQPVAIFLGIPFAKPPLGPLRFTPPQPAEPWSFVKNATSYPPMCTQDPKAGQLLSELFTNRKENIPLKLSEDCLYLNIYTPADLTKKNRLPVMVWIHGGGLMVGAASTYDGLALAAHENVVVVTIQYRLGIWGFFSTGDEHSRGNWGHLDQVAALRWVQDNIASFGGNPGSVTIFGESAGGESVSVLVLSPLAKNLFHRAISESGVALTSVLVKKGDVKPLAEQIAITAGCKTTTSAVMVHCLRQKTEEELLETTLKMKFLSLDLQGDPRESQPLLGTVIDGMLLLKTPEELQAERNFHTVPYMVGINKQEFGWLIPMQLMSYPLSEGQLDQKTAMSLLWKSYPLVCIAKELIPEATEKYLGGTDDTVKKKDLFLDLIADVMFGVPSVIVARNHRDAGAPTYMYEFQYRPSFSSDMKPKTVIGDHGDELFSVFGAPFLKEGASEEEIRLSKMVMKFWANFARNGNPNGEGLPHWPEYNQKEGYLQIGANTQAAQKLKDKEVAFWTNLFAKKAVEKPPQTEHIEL

[1] = HLM as enzyme source, FD hydrolysis as probe reaction, read-out: IC50 (μM) hCES2A
[2] = HLM as enzyme source, DME hydrolysis as probe reaction, read-out: IC50 (μM) hCES1A

Row | SMILES | IC50 (hCES2A; [1]) | inhibition of hCES2A-mediated FD hydrolysis (residual activity screen) (hCES2A) | IC50 (hCES1A; [2]) | inhibition of hCES1A-mediated DME hydrolysis (residual activity screen) (hCES1A) | Specificity (hCES1A/hCES2A) (hCES2A) | IC50 (hCES2A) | IC50 (hCES1A)
1 | CC(C)=CCC[C@](C)(O[C@@H]1O[C@H](CO[C@@H]2OC[C@@H](O)[C@H](O)[C@H]2O)[C@@H](O)[C@H](O)[C@H]1O)[C@H]1CC[C@]2(C)[C@@H]1[C@H](O)C[C@@H]1[C@@]3(C)CC[C@H](O[C@@H]4O[C@H](CO)[C@@H](O)[C@H](O)[C@H]4O[C@@H]4O[C@H](CO)[C@@H](O)[C@H](O)[C@H]4O)C(C)(C)[C@@H]3CC[C@]12C [Rb3] | > 100 µM | hardly inhibit | > 100 µM | hardly inhibit |  |  | 
2 | CC(C)=CCC[C@](C)(O[C@@H]1O[C@H](CO[C@@H]2O[C@@H](CO)[C@H](O)[C@H]2O)[C@@H](O)[C@H](O)[C@H]1O)[C@H]1CC[C@]2(C)[C@@H]1[C@H](O)C[C@@H]1[C@@]3(C)CC[C@H](O[C@@H]4O[C@H](CO)[C@@H](O)[C@H](O)[C@H]4O[C@@H]4O[C@H](CO)[C@@H](O)[C@H](O)[C@H]4O)C(C)(C)[C@@H]3CC[C@]12C [Rc] |  |  | > 100 µM |  | >1.22 |  | 
3 | CC(C)=CCC[C@](C)(O[C@@H]1O[C@H](CO)[C@@H](O)[C@H](O)[C@H]1O)[C@H]1CC[C@]2(C)[C@@H]1[C@H](O)C[C@@H]1[C@@]3(C)CC[C@H](O[C@@H]4O[C@H](CO)[C@@H](O)[C@H](O)[C@H]4O[C@@H]4O[C@H](CO)[C@@H](O)[C@H](O)[C@H]4O)C(C)(C)[C@@H]3CC[C@]12C [Rd] |  |  | > 100 µM |  | > 7.12 |  | 
4 | CC(C)=CCC[C@](C)(O[C@@H]1O[C@H](CO)[C@@H](O)[C@H](O)[C@H]1O)[C@H]1CC[C@]2(C)[C@@H]1[C@H](O)C[C@@H]1[C@@]3(C)CC[C@H](O)C(C)(C)[C@@H]3[C@@H](O[C@@H]3O[C@H](CO)[C@@H](O)[C@H](O)[C@H]3O[C@@H]3O[C@@H](C)[C@H](O)[C@@H](O)[C@H]3O)C[C@]12C [Re, ginsenoside Re] | > 100 µM | hardly inhibit | > 100 µM | hardly inhibit |  |  | 
5 | CC(C)=CCC[C@](C)(O[C@@H]1O[C@H](CO)[C@@H](O)[C@H](O)[C@H]1O)[C@H]1CC[C@]2(C)[C@@H]1[C@H](O)C[C@@H]1[C@@]3(C)CC[C@H](O)C(C)(C)[C@@H]3[C@@H](O[C@@H]3O[C@H](CO)[C@@H](O)[C@H](O)[C@H]3O)C[C@]12C [Rg1, ginsenoside Rg1] | > 100 µM | hardly inhibit | > 100 µM | hardly inhibit |  |  | 
6 | CC(C)=CCC[C@](C)(O)[C@H]1CC[C@]2(C)[C@@H]1[C@H](O)C[C@@H]1[C@@]3(C)CC[C@H](O)C(C)(C)[C@@H]3[C@@H](O[C@@H]3O[C@H](CO)[C@@H](O)[C@H](O)[C@H]3O[C@@H]3O[C@@H](C)[C@H](O)[C@@H](O)[C@H]3O)C[C@]12C [Rg2, ginsenoside Rg2] | > 100 µM | hardly inhibit | > 100 µM | hardly inhibit |  |  | 
7 | CC(C)=CCC[C@](C)(O)C1CC[C@]2(C)C1[C@H](O)CC1[C@@]3(C)CC[C@H](O[C@@H]4O[C@H](CO)[C@@H](O)[C@H](O)[C@H]4O[C@@H]4O[C@H](CO)[C@@H](O)[C@H](O)[C@H]4O)C(C)(C)C3CC[C@]12C (some centres unmarked) [Rg3] |  |  | > 100 µM |  | > 9.64 |  | 
8 | CC(C)=CCC[C@](C)(O)[C@H]1CC[C@]2(C)[C@@H]1[C@H](O)C[C@@H]1[C@@]3(C)CC[C@H](O)C(C)(C)[C@@H]3[C@@H](O[C@@H]3O[C@H](CO)[C@@H](O)[C@H](O)[C@H]3O)C[C@]12C [Rh1, ginsenoside Rh1] |  |  |  |  |  | > 100 µM | > 100 µM
9 | CC(C)=CCC[C@](C)(O)[C@H]1CC[C@]2(C)[C@@H]1[C@H](O)C[C@@H]1[C@@]3(C)CC[C@H](O[C@@H]4O[C@H](CO)[C@@H](O)[C@H](O)[C@H]4O)C(C)(C)[C@@H]3CC[C@]12C [Rh2] |  |  |  |  | > 18.86 |  | > 100 µM
